Columns and labels:
rat Mrp4 = target: T1, rat Mrp4 (Rattus norvegicus, UniProt F1M3J4); assay: Vesicular transport assay, inside-out membrane vesicles expressing rat Mrp4; details: for TransportATP/TransportAMP ratio (net transport ratio): 10 min
T1 sequence (F1M3J4 1-1325): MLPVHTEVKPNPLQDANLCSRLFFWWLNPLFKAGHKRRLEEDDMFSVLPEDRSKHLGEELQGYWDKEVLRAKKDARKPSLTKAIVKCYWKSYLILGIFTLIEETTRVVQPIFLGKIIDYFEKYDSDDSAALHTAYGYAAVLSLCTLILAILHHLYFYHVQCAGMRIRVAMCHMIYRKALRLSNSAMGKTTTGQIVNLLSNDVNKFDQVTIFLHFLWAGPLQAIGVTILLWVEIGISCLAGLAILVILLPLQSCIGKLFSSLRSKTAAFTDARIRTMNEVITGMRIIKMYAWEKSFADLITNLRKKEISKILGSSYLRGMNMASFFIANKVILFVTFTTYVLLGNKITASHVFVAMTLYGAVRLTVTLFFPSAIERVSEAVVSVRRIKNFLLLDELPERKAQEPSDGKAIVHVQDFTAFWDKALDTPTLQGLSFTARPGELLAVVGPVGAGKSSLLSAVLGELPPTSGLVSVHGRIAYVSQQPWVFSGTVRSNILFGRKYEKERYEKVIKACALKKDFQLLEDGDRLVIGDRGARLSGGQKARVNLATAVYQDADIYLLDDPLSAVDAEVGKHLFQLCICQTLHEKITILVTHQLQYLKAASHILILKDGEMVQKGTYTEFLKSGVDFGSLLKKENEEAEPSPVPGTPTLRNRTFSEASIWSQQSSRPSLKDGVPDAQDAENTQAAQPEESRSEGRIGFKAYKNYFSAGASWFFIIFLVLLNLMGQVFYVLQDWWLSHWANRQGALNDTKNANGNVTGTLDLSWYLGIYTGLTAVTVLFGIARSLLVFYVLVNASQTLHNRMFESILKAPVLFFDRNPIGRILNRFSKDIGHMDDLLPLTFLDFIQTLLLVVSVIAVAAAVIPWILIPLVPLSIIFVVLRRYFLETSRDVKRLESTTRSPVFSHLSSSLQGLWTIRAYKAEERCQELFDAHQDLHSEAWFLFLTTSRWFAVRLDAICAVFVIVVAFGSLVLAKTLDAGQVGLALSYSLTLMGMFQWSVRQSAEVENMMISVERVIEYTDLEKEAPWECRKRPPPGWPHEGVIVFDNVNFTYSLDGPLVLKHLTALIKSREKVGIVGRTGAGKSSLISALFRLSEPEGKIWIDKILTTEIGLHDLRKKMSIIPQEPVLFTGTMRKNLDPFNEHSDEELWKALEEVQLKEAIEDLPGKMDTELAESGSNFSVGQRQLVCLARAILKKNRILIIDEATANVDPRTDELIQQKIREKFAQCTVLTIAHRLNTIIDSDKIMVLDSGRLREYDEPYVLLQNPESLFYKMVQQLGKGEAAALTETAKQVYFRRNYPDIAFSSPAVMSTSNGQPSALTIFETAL
Protocol: (§1) Inside-out membrane vesicles (5 mg protein/mL), prepared from insect cells expressing human multidrug resistance-associated protein (MRP) 2, MRP3, MRP4, breast cancer resistance protein (BCRP), bile salt export pump (BSEP), and multidrug resistance protein (MDR) one and rat Mrp2, Mrp4, Bcrp, and Bsep, and vesicles (5 mg protein/mL; prepared from the insect cells expressing no ABC transporter; serving as negative control) were obtained from Genomembrane (Kanazawa, Japan).
(§2) The test Danshen compounds at 100 µM final concentration were separately incubated with the membrane vesicles for 10 min. Buffer C (50 mM MOPS-tris, 70 mM KCl, 7.5 mM MgCl2, pH 7.0) was used for preincubation and incubation, while buffer D (40 mM MOPS-tris, 70 mM KCl, pH 7.0) was used for vesicle washing. The transport rate (pmol/mg protein/min) of the test Danshen compound was calculated using Equation (2): Transport=(CV×VV)/T/WV (2) where C V, V V, T, and W V represent concentration of the compound in vesicular lysates supernatant (μM), volume of the lysates (μL), incubation time (10 min), and amount of vesicle protein amount per well (0.05 mg), respectively. Differential transport of the test Danshen compound between ATP-containing vesicles and AMP-containing vesicles was defined as net transport ratio (TransportATP/TransportAMP ratio). […] All the incubation samples were analyzed by liquid chromatography/mass spectrometry.

rat Bcrp = target: T2, rat Bcrp (Rattus norvegicus, UniProt Q80W57); assay: Vesicular transport assay, inside-out membrane vesicles expressing rat Bcrp; details: 10 min
T2 sequence (Q80W57 1-657): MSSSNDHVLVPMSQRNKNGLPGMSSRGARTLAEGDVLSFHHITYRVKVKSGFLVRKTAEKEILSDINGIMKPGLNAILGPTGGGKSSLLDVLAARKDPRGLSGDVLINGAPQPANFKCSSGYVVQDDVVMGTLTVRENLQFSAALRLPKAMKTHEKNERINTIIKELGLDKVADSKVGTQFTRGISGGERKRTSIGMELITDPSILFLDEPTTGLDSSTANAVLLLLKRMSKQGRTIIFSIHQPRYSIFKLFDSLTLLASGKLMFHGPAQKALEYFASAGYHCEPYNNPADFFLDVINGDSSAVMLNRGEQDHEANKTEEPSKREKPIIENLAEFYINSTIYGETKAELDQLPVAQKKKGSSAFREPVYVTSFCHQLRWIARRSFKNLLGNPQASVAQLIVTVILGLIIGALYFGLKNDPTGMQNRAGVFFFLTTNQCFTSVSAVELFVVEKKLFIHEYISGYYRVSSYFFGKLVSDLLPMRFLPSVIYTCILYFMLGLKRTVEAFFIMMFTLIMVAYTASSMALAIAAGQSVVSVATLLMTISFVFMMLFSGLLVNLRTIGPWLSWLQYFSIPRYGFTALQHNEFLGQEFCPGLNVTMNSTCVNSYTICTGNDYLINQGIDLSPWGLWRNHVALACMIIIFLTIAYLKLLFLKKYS
Protocol: as §1, §2

[1] = Danshen phenolic acid at 100 μM final concentration, rat Mrp4 vesicles
[2] = Danshen phenolic acid at 100 μM final concentration, rat Bcrp vesicles

Compound | TransportATP/TransportAMP ratio (net transport ratio) (rat Mrp4; [1]) | TransportATP/TransportAMP ratio (net transport ratio) (rat Bcrp; [2]) | substrate of rat Mrp4 (rat Mrp4) | TransportATP/TransportAMP ratio (net transport ratio) (rat Mrp4; rat, 100 μM, pH 7) | TransportATP/TransportAMP ratio (net transport ratio) (rat Bcrp; rat, not told, 100 μM, pH 7)
O=C(/C=C/c1ccc(O)c2c1[C@H](C(=O)O)[C@@H](c1ccc(O)c(O)c1)O2)O[C@H](Cc1ccc(O)c(O)c1)C(=O)O [Lithospermic acid, lithospermic acid] | 1.46 ± 0.01 | 1.27 ± 0.20 | – | – | –
O=C(O)c1ccc(O)c(O)c1 [Protocatechuic acid, protocatechuic acid] | 1.17 ± 0.06 | 0.94 ± 0.21 | – | – | –
O=C(/C=C/c1ccc(O)c(O)c1)O[C@H](Cc1ccc(O)c(O)c1)C(=O)O [Rosmarinic acid, rosmarinic acid] | – | – | substrates | 4.79 ± 0.38 | 1.45 ± 0.32
O=C(/C=C/c1ccc(O)c(O)c1/C=C/c1ccc(O)c(O)c1)O[C@H](Cc1ccc(O)c(O)c1)C(=O)O [Salvianolic acid A, salvianolic acid A] | – | – | – | 2.09 ± 0.25 | 1.31 ± 0.04
O=C(O)Cc1c(/C=C/C(=O)O[C@H](Cc2ccc(O)c(O)c2)C(=O)O)ccc(O)c1O [Salvianolic acid D, salvianolic acid D] | 11.1 ± 0.2 | – | substrates | – | –
salvianolic acid B | 2.15 ± 0.32 | 1.13 ± 0.14 | – | – | –
